Test results from patent publication US20150104868A1, “Methods of Maintaining and Improving Biological Cell Function and Activity” (GARGILL INCORPORATED, priority 2012, published 2015).
“Also recorded” adds a separate entry of the source. Where two headings read alike, the source gives them in different places.

What was measured:
[1] = system: Mouse intestine (entero-endocrine) STC-1 cells
Description: Appropriate blanks, positive controls, and standards were also included.
The lactate dehydrogenase (LDH) leakage from cells was analyzed in the supernatants as a marker for cytotoxic cell death.

HUVEC cells [2] = assay: Oxidative damage: protein carbonyls in HUVEC; format: cell-based, human; details: HG 30 mM glucose 24 h, with or without 5 mM ERT/MAN
Description: The prepared cells were seeded in 6 well plates and T75 flasks and grown until 80% confluence. The medium was removed, and the cells were washed with Hank's Balanced Salt Solution (HBSS). […] The vehicle solution is the solvent for the test compounds, in this case being the medium without supplements. […] The cells described above were also incubated for 24 hours with a 7 mM, normal glucose (NG) solution or in some instances, with a 15 mM, intermediary glucose (IG) solution. See, for example, FIG. 6. Subsequently, the cells were incubated for 24 hours. The same protocol was used for incubation with Nε-(carboxymethyl)lysine (CML, final concentration 1 micromolar) and 1,3-morpholino sidnonimine (SIN-1, final concentration 0.5 mM). […] Hyperglycemia is strongly associated with oxidative stress, an imbalance between the formation of reactive oxygen species and the present antioxidants. Excess reactive oxygen species react with critical cellular targets, viz. membrane lipids, proteins and (deoxy)ribonucleic acids. […] Accordingly, one of the targeted assays included studying a comparison of HG to HGERT conditions, where the oxidative damage was evaluated showing that the protein carbonyls decreased from 6.55 nM/mg protein with HG to 3.77 with […]=0.089). Protein carbonyls are end products of reactions between proteins and reactive oxygen species (ROS), formed during oxidative stress. […]

HUVEC cells [3] = assay: HUVEC cell viability assay (trypan blue, percentage of dead cells); format: cell-based, human; details: ERT/MAN 5 mM 1 h before, SIN-1 0.5 mM, CML 1 micromolar
Description: A HUVEC cell line (CRL-1730) was obtained from American Type Culture Collection (ATCC) of Manassas, Va. […] The prepared cells were maintained in collagen coated T75 flasks (Greiner Bio-one) at 37° C. in a 5% CO2 atmosphere. The prepared cells were subjected to various stressors. Stressors, for purposes of the examples, include conditions of stress caused by glucose directly or indirectly through the formation or elevation of other substances that cause stress. Diabetic stressors include high glucose (HG; 30 mM, 24 h), TNFα: pro-inflammatory agent, Nε carboxymethyllysine: advanced glycation end (AGE) product, and SIN-1: peroxynitrite generator. Prepared cells were also exposed to normal glucose (NG; 7 mM, 24 h) as a control. The prepared cells were seeded in 6 well plates and T75 flasks and grown until 80% confluence. The medium was removed, and the cells were washed with Hank's Balanced Salt Solution (HBSS). […] The vehicle solution is the solvent for the test compounds, in this case being the medium without supplements. […] The cells described above were also incubated for 24 hours with a 7 mM, normal glucose (NG) solution or in some instances, with a 15 mM, intermediary glucose (IG) solution. See, for example, FIG. 6. Subsequently, the cells were incubated for 24 hours. The same protocol was used for incubation with Nε-(carboxymethyl)lysine (CML, final concentration 1 micromolar) and 1,3-morpholino sidnonimine (SIN-1, final concentration 0.5 mM). […] In a cell viability assay, fresh, untreated HUVEC cells were grown in 6 well plates until 80% confluence. Subsequently, the incubation medium was removed and the cells were washed with HBSS and harvested with trypsin. All cell material, including the medium and the HBSS wash, was collected and centrifuged for 5 minutes at 500×g. […] The number of viable (white) and dead (blue) cells were counted in 25 squares, and the count was repeated an additional two times for each sample, for a total of three counts per sample. […] The percentage of dead cells was then calculated with the formula: (blue cells/(blue cells+white cells))*100.

`O=C(CO)[C@@H](O)[C@H](O)[C@H](O)CO[C@H]1O[C@H](CO)[C@@H](O)[C@H](O)[C@H]1O` [6-O-α-D-glucopyranosyl-D-fructose] was tested, and the “cell death (leakage of lactate dehydrogenase)” value (“cell death” for short) [1] was “cell death was higher”.

`OC[C@H]1O[C@@](CO)(O[C@H]2O[C@H](CO)[C@@H](O)[C@H](O)[C@H]2O)[C@@H](O)[C@@H]1O` [sucrose] was tested, and the “cell death” value [1] was “cell death was higher”.

With `OC[C@@H](O)[C@@H](O)[C@H](O)[C@H](O)CO` [MAN, (2R,3R,4R,5R)-hexaan-1,2,3,4,5,6-hexol, reference compound] the protein carbonyls (HUVEC cells [2]) was “did not reduce protein carbonyls”.

For `O=C(CO)[C@@H](O)[C@H](O)[C@H](O)CO` [fructose], the “cell death” value ([1]; STC-1 cells, 10% w/v, 2 hours at 37° C.) was “cell death was higher”.

With `[NH-]c1c[n+](N2CCOCC2)no1` [SIN-1, 3-morpholinosidnonimine] the “percentage of dead cells (Average)” value (HUVEC cells [3]; HG 30 mM glucose 24 h, listed as SIN) was 12.59%, the “percentage of dead cells (Average)” value (HUVEC cells [3]; NG 7 mM glucose 24 h) was “significant increase in the amount of dead cells; also recorded: increased the number of dead cells” and the “percentage of dead cells (Average)” value (HUVEC cells [3]; NG 7 mM glucose 24 h, listed as SIN) was 12.29%.
